Experimental data published in patent US11767564B2, “Use of SDHA as a prognostic marker and therapeutic target in uveal melanoma” (Board of Regents, The University of Texas System, priority 2017, dated 2023).

Columns and labels:
[1] = system: monosomy 3 uveal melanoma cell lines; test: Cell survival analysis with OXPHOS inhibitor IACS-10759; assay type: cell-based
Experimental: Cell survival analysis with monosomy and disomy 3 uveal melanoma cells in presence and absence of oxidative phosphorylation (OXPHOS) inhibitor, IACS-10759, was performed. Cells were cultured under ambient oxygen or 1% oxygen. Mitotracker Red dye staining was used to assay the extent of active mitochondria in monosomy 3 and disomy 3 cells. The percent cell survival of uveal melanoma cells treated with increasing concentrations of OXPHOS inhibitor, IACS-10759, was determined.

[2] = system: monosomy 3 and disomy 3 cells; test: Percent cell survival with SDHA and/or MIF inhibitors; assay type: cell-based; settings: simultaneous 20 nM SDHA siRNA and 10 or 25 μM ISO-1; both cell lines (monosomy 3, disomy 3); FIG. 7B
Description: FIGS. 7A-7B: (FIG. 7A) Survival rate of uveal melanoma predicted using TCGA data. SDHA and MIF expression both above median is associated with lowest survival rate. SDHA and MIF both below median is associated with highest survival rate. SDHA below median and MIF above median expression is associated with the second lowest survival rate (p<0.001). (FIG. 7B) In vitro validation of association of SDHA and MIF expression with uveal melanoma cell survival.
Accordingly, the survival rate of uveal melanoma was predicted using TCGA data of SDHA and/or MIF expression. SDHA and MIF expression both above median was associated with lowest survival rate (FIG. 7A). On the other hand, SDHA and MIF both below median was associated with highest survival rate. Thus, both SDHA and MIF expression correlate with survival rate of uveal melanoma patients and may be used for prognosis. The association of SDHA and MID with uveal melanoma survival rate was validated by measuring percent cell survival in monosomy 3 and disomy 3 cells treated with SHDA and/or MIF inhibitors. SDHA was inhibited by 20 nM siRNA and MIF was inhibited by 10 or 25 μM ISO-1.

Row | Compound | percent cell survival, resistance to inhibitor ([1]; monosomy 3 lines under hypoxic conditions (1% oxygen) or in galactose media) | percent cell survival, resistance to inhibitor ([1]; three monosomy 3 UM cell lines compared to three lines with normal chromosome 3 copy number, increasing concentrations) | percent cell survival [2]
1 | Cc1nc(-c2nc(-c3ccc(OC(F)(F)F)cc3)no2)nn1Cc1cccc(N2CCC(S(C)(=O)=O)CC2)c1 [IACS-10759] | resistance diminishes | more resistant to IACS-10759 | 
2 | COC(=O)CC1CC(c2ccc(O)cc2)=NO1 (stereo not drawn) [ISO-1] |  |  | highest decrease in percent cell survival
